# Like-named read-outs stand apart in the source and are kept apart here.
# Test: Plasma pharmacokinetics after single oral dose of Δ8-THCV in MCT oil (LC-MS/MS, non-compartmental analysis)
# Type: in vivo, human
# Settings: for concentration at 8 h / concentration at 0.5 h / concentration at 1 h / concentration at 2 h / concentration at 4 h / concentration at 6 h / AUC(0-t) / Cmax / MRT / Tmax: human; for concentration at 8 h / concentration at 0.5 h / concentration at 1 h / concentration at 2 h / concentration at 4 h / concentration at 6 h: oral; for AUC(0-t) / Cmax / MRT / Tmax: po; for MRT: read-out: MRT (mean residence time); for Tmax: read-out: tmax
# How it was run: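 Healthy participants received single oral Δ8-THCV in MCT oil (50 mg/mL; 12.5-200 mg, or placebo) after a high-fat, high-calorie breakfast, with ≥1-week washout. Plasma (K2EDTA) sampled predose and 0.5-8 h post-dose, assayed by validated LC-MS/MS including metabolites; PK by non-compartmental analysis, sub-LLOQ values set to 0.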
# [1] = plasma, 100 mg, 100 mg Δ8-THCV dose, Mean (SD, %CV)
# [2] = plasma, 100 mg, 100 mg Δ8-THCV dose, Median (IQ Range)
# [3] = plasma, 200 mg, 200 mg Δ8-THCV dose, Mean (SD, %CV)
# [4] = plasma, 200 mg, 200 mg Δ8-THCV dose, Median (IQ Range)
# [5] = plasma, 12.5 mg, 12.5 mg single oral Δ8-THCV in MCT oil, Mean (±SD)
# [6] = plasma, 12.5 mg, 12.5 mg single oral Δ8-THCV in MCT oil, Median (Range)
# [7] = plasma, 12.5 mg, 12.5 mg single oral Δ8-THCV in MCT oil, plasma, Mean (±SD)
# [8] = plasma, 12.5 mg, 12.5 mg single oral Δ8-THCV in MCT oil, plasma, Median (Range)
# [9] = plasma, 25 mg, 25 mg single oral Δ8-THCV in MCT oil, Mean (±SD)
# [10] = plasma, 25 mg, 25 mg single oral Δ8-THCV in MCT oil, Median (Range)
# [11] = plasma, 25 mg, 25 mg single oral Δ8-THCV in MCT oil, plasma, Mean (±SD)
# [12] = plasma, 25 mg, 25 mg single oral Δ8-THCV in MCT oil, plasma, Median (Range)
# [13] = plasma, 50 mg, 50 mg single oral Δ8-THCV in MCT oil, Mean (±SD)
# [14] = plasma, 50 mg, 50 mg single oral Δ8-THCV in MCT oil, Median (Range)
# [15] = plasma, 50 mg, 50 mg single oral Δ8-THCV in MCT oil, plasma, Mean (±SD)
# [16] = plasma, 50 mg, 50 mg single oral Δ8-THCV in MCT oil, plasma, Median (Range)
# [17] = plasma, 100 mg, 100 mg single oral Δ8-THCV in MCT oil, Mean (±SD)
# [18] = plasma, 100 mg, 100 mg single oral Δ8-THCV in MCT oil, Median (Range)
# [19] = plasma, 100 mg, 100 mg single oral Δ8-THCV in MCT oil, plasma, Mean (±SD)
# [20] = plasma, 100 mg, 100 mg single oral Δ8-THCV in MCT oil, plasma, Median (Range)
# [21] = plasma, 200 mg, 200 mg single oral Δ8-THCV in MCT oil, Mean (±SD)
# [22] = plasma, 200 mg, 200 mg single oral Δ8-THCV in MCT oil, Median (Range)
# [23] = plasma, 200 mg, 200 mg single oral Δ8-THCV in MCT oil, plasma, Mean (±SD)
# [24] = plasma, 200 mg, 200 mg single oral Δ8-THCV in MCT oil, plasma, Median (Range)
smiles,measurement,setting,value
"CCCc1cc(O)c2c(c1)OC(C)(C)[C@@H]1CC=C(CO)C[C@@H]21 (racemic) [11-OH-Δ8-THCV, (±)-11-hydroxy-Δ8-THCV]",concentration at 8 h,"plasma, 50 mg, 50 mg Δ8-THCV dose, Median (IQ Range)",0.6 ng/mL
same,concentration at 0.5 h,[1],0 ng/mL
same,concentration at 0.5 h,[2],0 ng/mL
same,concentration at 1 h,[1],1.4 ng/mL
same,concentration at 1 h,[2],0.5 ng/mL
same,concentration at 2 h,[1],1.8 ng/mL
same,concentration at 2 h,[2],1 ng/mL
same,concentration at 4 h,[1],2.1 ng/mL
same,concentration at 4 h,[2],1.3 ng/mL
same,concentration at 6 h,[1],2.4 ng/mL
same,concentration at 6 h,[2],1.5 ng/mL
same,concentration at 8 h,[1],1.3 ng/mL
same,concentration at 8 h,[2],1.1 ng/mL
same,concentration at 0.5 h,[3],0 ng/mL
same,concentration at 0.5 h,[4],0 ng/mL
same,concentration at 1 h,[3],1.2 ng/mL
same,concentration at 1 h,[4],0 ng/mL
same,concentration at 2 h,[3],4.5 ng/mL
same,concentration at 2 h,[4],1.8 ng/mL
same,concentration at 4 h,[3],5.2 ng/mL
same,concentration at 4 h,[4],3.4 ng/mL
same,concentration at 6 h,[3],4.6 ng/mL
same,concentration at 6 h,[4],3.7 ng/mL
same,concentration at 8 h,[3],3.7 ng/mL
same,concentration at 8 h,[4],3.1 ng/mL
same,AUC(0-t),[5],0.7 ng·h/mL
same,Cmax,[5],0.8 ng/mL
same,AUC(0-t),[6],0.8 ng·h/mL
same,Cmax,[6],0.8 ng/mL
same,MRT,[7],1.5 h
same,Tmax,[7],3.4 h
same,MRT,[8],1.4 h
same,Tmax,[8],4 h
same,AUC(0-t),[9],1.5 ng·h/mL
same,Cmax,[9],0.9 ng/mL
same,AUC(0-t),[10],0.8 ng·h/mL
same,Cmax,[10],0.8 ng/mL
same,MRT,[11],3.6 h
same,Tmax,[11],3.7 h
same,MRT,[12],3.6 h
same,Tmax,[12],4 h
same,AUC(0-t),[13],6.2 ng·h/mL
same,Cmax,[13],2 ng/mL
same,AUC(0-t),[14],5.3 ng·h/mL
same,Cmax,[14],1.9 ng/mL
same,MRT,[15],5.7 h
same,Tmax,[15],5 h
same,MRT,[16],6.1 h
same,Tmax,[16],6 h
same,AUC(0-t),[17],13.9 ng·h/mL
same,Cmax,[17],4.3 ng/mL
same,AUC(0-t),[18],12.4 ng·h/mL
same,Cmax,[18],3.4 ng/mL
same,MRT,[19],4.6 h
same,Tmax,[19],4.2 h
same,MRT,[20],4.3 h
same,Tmax,[20],5 h
same,AUC(0-t),[21],30.8 ng·h/mL
same,Cmax,[21],8.7 ng/mL
same,AUC(0-t),[22],29.5 ng·h/mL
same,Cmax,[22],6.4 ng/mL
same,MRT,[23],4.8 h
same,Tmax,[23],4.7 h
same,MRT,[24],4.7 h
same,Tmax,[24],4 h
same,number of positive plasma samples,of 504 plasma samples from 15 participants after oral Δ8-THCV,157
same,concentration in representative plasma sample,"one subject after oral Δ8-THCV in MCT oil, Figure A1",11.8 ng/mL
same,tmax later after doses greater than 50 mg compared to the 12.5 mg and 25 mg doses,"oral Δ8-THCV, plasma",1.3 fold
